The results in this text go back to patent US9951064B2, “Azaindazole compounds as inhibitors of T790M containing EGFR mutants” (Genentech, Inc., priority 2013, dated 2018).

One test concerns the target T1, EGFR T790M L858R (Homo sapiens, UniProt P00533, L858R/T790M).
T1 construct: purchased Life Technologies PV4879
Briefly: EGFR T790M L858R biochemical assay (Caliper mobility shift). Conditions: 5 μM ATP; apparent Ki (Morrison fit) converted by Cheng-Prusoff, Km of ATP 1.3 μM. The method, boiled down: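 Caliper mobility-shift read-out, electrophoretic separation of substrate from product, after a 30-minute kinase reaction at 22 °C. EDTA at 80 mM terminates each reaction.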

The target in the next test is T2, EGFR del746-750 T790M (Homo sapiens, UniProt P00533, DEL746-750/T790M).
T2 construct: purchased Carna Biosciences 08-528
The experiment in a line: EGFR del746-750 T790M biochemical assay (Caliper mobility shift). The note with it: 5 μM ATP; apparent Ki (Morrison fit) converted by Cheng-Prusoff, Km of ATP 2.1 μM; read-out: EGFR(T790M/d746-750) Ki. The method, boiled down: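 Caliper mobility-shift read-out, with product electrophoretically resolved from substrate and measured. Reactions were quenched with 80 mM EDTA after 30 min at 22 °C.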

Test [1] addresses T3, phosphor-EGFR in H1975(L585R/T790M) mutant EGFR expressing cells (Homo sapiens, UniProt P00533, L858R/T790M).
T3 construct: host or cells: NCI-H1975
Briefly: H1975 pEGFR MSD cellular assay. Type of test: cell-based. The note with it: NCI-H1975 cells, serum starved, 1 hour compound incubation, pEGFR Tyr1068 MSD; read-out: HI975 pEGFR EC50. The method, boiled down:
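Phospho-EGFR read by MSD electrochemiluminescence: capture with anti-pEGFR antibody (overnight, 4° C), detection with SULFO-TAG anti-total EGFR (1 hour, room temperature). Before lysis, H1975 cells starved of serum overnight got compound for 1 hour at 37° C, 0.5% DMSO final. EC50 via four-parameter logistic regression of percent inhibition.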

Test [2] relates to H1975 (EGFR T790M/L858R) cell proliferation. Briefly: H1975 proliferation assay (Cell Titer-Glo). Type of test: cell-based. Conditions: Homo sapiens, NCI-H1975, 72 h, NCI-H1975 cells, 72 hour incubation, read-out: H1975 antiproliferative EC50. As for the experimental part: H1975 Proliferation Assays
All cell culture reagents were purchased from Invitrogen/Gibco. Cells are cultured at 37° C. at 5% CO2 and split as recommended by ATCC.
(In ATP-based viability assays light output follows the ATP content of the culture.)

T1 sequence (P00533 25-1210 T790M/L858R): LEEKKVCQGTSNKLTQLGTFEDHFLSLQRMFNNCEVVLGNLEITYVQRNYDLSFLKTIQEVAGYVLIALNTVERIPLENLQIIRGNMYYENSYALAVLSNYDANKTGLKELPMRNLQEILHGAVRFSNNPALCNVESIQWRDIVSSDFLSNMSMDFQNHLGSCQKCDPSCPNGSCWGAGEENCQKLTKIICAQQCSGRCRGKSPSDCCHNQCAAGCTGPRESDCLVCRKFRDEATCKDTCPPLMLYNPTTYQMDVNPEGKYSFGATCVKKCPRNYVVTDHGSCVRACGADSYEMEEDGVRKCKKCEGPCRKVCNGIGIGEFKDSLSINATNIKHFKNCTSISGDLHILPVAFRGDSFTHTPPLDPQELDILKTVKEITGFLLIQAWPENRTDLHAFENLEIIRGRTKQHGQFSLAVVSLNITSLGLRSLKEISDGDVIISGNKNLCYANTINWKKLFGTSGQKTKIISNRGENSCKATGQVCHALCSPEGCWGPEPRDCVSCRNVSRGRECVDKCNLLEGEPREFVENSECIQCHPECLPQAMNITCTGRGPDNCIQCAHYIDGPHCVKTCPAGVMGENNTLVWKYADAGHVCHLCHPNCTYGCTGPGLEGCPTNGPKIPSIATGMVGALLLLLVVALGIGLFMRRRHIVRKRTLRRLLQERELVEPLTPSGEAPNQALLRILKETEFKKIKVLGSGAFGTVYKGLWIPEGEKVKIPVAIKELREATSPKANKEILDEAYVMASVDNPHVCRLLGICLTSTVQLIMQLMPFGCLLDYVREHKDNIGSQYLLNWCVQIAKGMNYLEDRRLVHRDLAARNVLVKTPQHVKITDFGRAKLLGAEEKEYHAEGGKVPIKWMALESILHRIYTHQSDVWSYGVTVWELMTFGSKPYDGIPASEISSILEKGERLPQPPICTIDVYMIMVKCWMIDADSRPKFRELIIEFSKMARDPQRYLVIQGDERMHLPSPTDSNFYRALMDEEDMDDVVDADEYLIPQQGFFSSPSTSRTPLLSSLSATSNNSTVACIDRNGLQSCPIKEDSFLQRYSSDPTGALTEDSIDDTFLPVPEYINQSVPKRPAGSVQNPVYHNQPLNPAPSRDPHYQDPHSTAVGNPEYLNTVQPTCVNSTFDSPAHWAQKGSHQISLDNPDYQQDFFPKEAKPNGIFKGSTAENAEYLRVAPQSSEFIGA
T3 sequence (P00533 25-1210 T790M/L858R): as above
T2 sequence (P00533 with tags, fused parts or gaps DEL746-750/T790M limits assumed): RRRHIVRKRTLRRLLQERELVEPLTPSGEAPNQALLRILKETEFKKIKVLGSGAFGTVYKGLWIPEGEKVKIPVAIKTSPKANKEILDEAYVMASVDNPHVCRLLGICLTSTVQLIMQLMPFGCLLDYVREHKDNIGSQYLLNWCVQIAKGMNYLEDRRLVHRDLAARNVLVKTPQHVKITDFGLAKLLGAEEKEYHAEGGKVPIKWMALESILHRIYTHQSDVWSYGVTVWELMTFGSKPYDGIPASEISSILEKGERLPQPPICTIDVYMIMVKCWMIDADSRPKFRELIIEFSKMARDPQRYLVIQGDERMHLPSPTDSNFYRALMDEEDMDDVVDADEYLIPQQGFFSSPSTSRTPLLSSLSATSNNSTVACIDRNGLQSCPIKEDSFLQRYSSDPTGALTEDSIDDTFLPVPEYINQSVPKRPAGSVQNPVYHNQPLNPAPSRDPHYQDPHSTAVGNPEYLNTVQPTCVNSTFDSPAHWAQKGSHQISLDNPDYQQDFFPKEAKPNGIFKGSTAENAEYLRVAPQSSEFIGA

As usually defined, the EC50 is the concentration giving half of the maximal effect. As for `CCC(C)n1nc(N2CCCC2=O)c2cnc(Nc3ccnc(N4CCC(C)(O)CC4)n3)cc21` (stereo not drawn) [Example 204, 1-(1-(sec-Butyl)-6-((2-(4-hydroxy-4-methylpiperidin-1-yl)pyrimidin-4-yl)amino)-1H-pyrazolo[4,3-c]pyridin-3-yl)pyrrolidin-2-one], the Ki at EGFR T790M L858R was determined as 2.2 nM; at EGFR del746-750 T790M it was 4.5 nM. The EC50 is 224 nM in test [1] and 569 nM in test [2].
On the same counts, the results for `CC(C)n1nc(N2CC[C@@H](O)C2)c2cnc(Nc3ccnc(N4CCC(C)(O)CC4)n3)cc21` [Example 205, (R)-1-(4-((3-(3-Hydroxypyrrolidin-1-yl)-1-isopropyl-1H-pyrazolo[4,3-c]pyridin-6-yl)amino)pyrimidin-2-yl)-4-methylpiperidin-4-ol] are 2.7 nM, 9 nM, 287 nM and 831 nM.
On the same counts, the results for `CCC(C)n1nc(N2CC[C@@H](O)C2)c2cnc(Nc3ccnc(N4CCC(S(C)(=O)=O)CC4)n3)cc21` (stereo partly drawn) [Example 206, (3R)-1-(1-(sec-Butyl)-6-((2-(4-(methylsulfonyl)piperidin-1-yl)pyrimidin-4-yl)amino)-1H-pyrazolo[4,3-c]pyridin-3-yl)pyrrolidin-3-ol] are 1.9 nM, 8.9 nM, 298 nM and 1110 nM.
